Results taken from patent US20120016009A1, “Optimized Methods For Delivery Of DSRNA Targeting The PCSK9 Gene” (priority 2008, published 2012).
In the oligonucleotide strings, read from the 5' end, every base follows the letter of its sugar. An asterisk marks phosphorothioate; unmarked linkages are phosphodiester. Other units and linkages are bracketed, terminal groups are in braces. A string of capitals states the bases alone. e = 2'-O-(2-methoxyethyl) (MOE); d = 2'-deoxy (DNA); m = 2'-O-methyl; r = 2'-OH (RNA); {P} = phosphate; f = 2'-fluoro

Tested on: PCSK9 mRNA
Experiment: In vitro screening of modified dsRNAs targeted to PCSK9 (Table 2b; cell type not given)
Format: cell-based
Settings: 30 nM siRNA
Procedure: For transfection with siRNA, HuH7, HepG2, or HeLa cells were seeded at a density of 2.0×10^4 cells/well in 96-well plates and transfected directly. Transfection of siRNA (30 nM for single dose screen) was carried out with lipofectamine 2000 (Invitrogen GmbH, Karlsruhe, Germany, cat. No. 11668-019) as described by the manufacturer.
24 hours after transfection HuH7 and HepG2 cells were lysed and PCSK9 mRNA levels were quantified with the Quantigene Explore Kit (Genosprectra, Dumbarton Circle Fremont, USA, cat. No. QG-000-02) according to the protocol. PCSK9 mRNA levels were normalized to GAP-DH mRNA. For each siRNA eight individual datapoints were collected. siRNA duplexes unrelated to PCSK9 gene were used as control. The activity of a given PCSK9 specific siRNA duplex was expressed as percent PCSK9 mRNA concentration in treated cells relative to PCSK9 mRNA concentration in cells treated with the control siRNA duplex.
Tables 1b and 2b (and FIG. 6A) summarize the results and provide examples of in vitro screens in different cell lines at different doses. Silencing of PCSK9 transcript was expressed as percentage of remaining transcript at a given dose.

Row | Substance | Remaining mRNA in % of controls at siRNA conc. of 30 nM [%]
1 | AD-12351: modified dsRNA, SEQ ID NO:1401/1402 (chain 1 fGmCfCmUfGmGfAmGfUmUfUmAfUmUfCmGfGmAfA; chain 2 {P}-mUfUmCfCmGfAmAfUmAfAmAfCmUfCmCfAmGfGmC*fC*mU) | 11
2 | AD-12352: modified dsRNA, SEQ ID NO:1403/1404 (chain 1 fGmCfCmUfGmGfAmGfUmUfUmAfUmUfCmGfGmAfA; chain 2 rUrUrCrCrGmAmArUrAmAmArCrUrCrCrAmGmGmC*mC*mU) | 11
3 | AD-12354: modified dsRNA, SEQ ID NO:1405/1406 (chain 1 fGmCfCmUfGmGfAmGfUmUfUmAfUmUfCmGfGmAfA; chain 2 rUrUrCrCrGrArArUrArArArCrUrCrCrArGrGrC*mC*mU) | 11
4 | AD-12355: modified dsRNA, SEQ ID NO:1407/1408 (chain 1 fGmCfCmUfGmGfAmGfUmUfUmAfUmUfCmGfGmAfA; chain 2 rUrUrCrCrGrArAmUrArArArCrUrCmCrArGrGrCdT*dT) | 9
5 | AD-12356: modified dsRNA, SEQ ID NO:1409/1410 (chain 1 fGmCfCmUfGmGfAmGfUmUfUmAfUmUfCmGfGmAfA; chain 2 mUrUmCrCrGrArAmUrArArArCrUmCmCrArGrGrCdT*dT) | 25
6 | AD-12357: modified dsRNA, SEQ ID NO:1411/1412 (chain 1 GCCUGGAGUUUAUUCGGAA; chain 2 rUrUrCrCrGmAmArUrAmAmArCrUrCrCrAmGmGmC; chain 1: sugars from the 5' end rererererererererer, all phosphodiester, methylation of C and T or U not given here) | 56
7 | AD-12358: modified dsRNA, SEQ ID NO:1413/1414 (chain 1 GCCUGGAGUUUAUUCGGAA; chain 2 {P}-mUfUmCfCmGfAmAfUmAfAmAfCmUfCmCfAmGfGmC; chain 1: sugars from the 5' end rererererererererer, all phosphodiester, methylation of C and T or U not given here) | 29
8 | AD-12359: modified dsRNA, SEQ ID NO:1415/1416 (chain 1 GCCUGGAGUUUAUUCGGAA; chain 2 {P}-mUfUmCfCmGfAmAfUmAfAmAfCmUfCmCfAmGfGmC*fC*mU; chain 1: sugars from the 5' end rererererererererer, all phosphodiester, methylation of C and T or U not given here) | 30
9 | AD-12360: modified dsRNA, SEQ ID NO:1417/1418 (chain 1 GCCUGGAGUUUAUUCGGAA; chain 2 rUrUrCrCrGrArArUrArArArCrUrCrCrArGrGrC*mC*mU; chain 1: sugars from the 5' end rererererererererer, all phosphodiester, methylation of C and T or U not given here) | 15
10 | AD-12361: modified dsRNA, SEQ ID NO:1419/1420 (chain 1 GCCUGGAGUUUAUUCGGAA; chain 2 rUrUrCrCrGrArAmUrArArArCrUrCmCrArGrGrCdT*dT; chain 1: sugars from the 5' end rererererererererer, all phosphodiester, methylation of C and T or U not given here) | 20
11 | AD-12362: modified dsRNA, SEQ ID NO:1421/1422 (chain 1 GCCUGGAGUUUAUUCGGAA; chain 2 mUrUmCrCrGrArAmUrArArArCrUmCmCrArGrGrCdT*dT; chain 1: sugars from the 5' end rererererererererer, all phosphodiester, methylation of C and T or U not given here) | 51
12 | AD-12363: modified dsRNA, SEQ ID NO:1423/1424 (chain 1 GCCUGGAGUUUAUUCGGAA; chain 2 rUrUrCrCrGmAmArUrAmAmArCrUrCrCrAmGmGmC*mC*mU; chain 1: sugars from the 5' end rererererererererer, all phosphodiester, methylation of C and T or U not given here) | 11
13 | AD-12364: modified dsRNA, SEQ ID NO:1425/1426 (chain 1 GCCUGGAGUUUAUUCGGAATT; chain 2 rUrUrCrCrGmAmArUrAmAmArCrUrCrCrAmGmGmCdT*dT; chain 1: sugars from the 5' end rerererererererererdd, linkages o19 s1 (s phosphorothioate, o phosphodiester), methylation of C and T or U not given here) | 25
14 | AD-12365: modified dsRNA, SEQ ID NO:1427/1428 (chain 1 GCCUGGAGUUUAUUCGGAATT; chain 2 rUrUrCrCrGrArAmUrArArArCrUrCmCrArGrGrCdT*dT; chain 1: sugars from the 5' end rerererererererererdd, linkages o19 s1 (s phosphorothioate, o phosphodiester), methylation of C and T or U not given here) | 18
15 | AD-12366: modified dsRNA, SEQ ID NO:1429/1430 (chain 1 GCCUGGAGUUUAUUCGGAATT; chain 2 rUrUrCrCrGrArArUrArArArCrUrCrCrArGrGrCdT*dT; chain 1: sugars from the 5' end rerererererererererdd, linkages o19 s1 (s phosphorothioate, o phosphodiester), methylation of C and T or U not given here) | 23
16 | AD-12367: modified dsRNA, SEQ ID NO:1431/1432 (chain 1 GCCUGGAGUUUAUUCGGAATT; chain 2 rUrUrCrCrGmAmArUrAmAmArCrUrCrCrAmGmGmCdT*dT; chain 1: DNA at T, 2'-MOE at CU, RNA at AG, linkages o19 s1 (s phosphorothioate, o phosphodiester), methylation of C and T or U not given here) | 42
17 | AD-12368: modified dsRNA, SEQ ID NO:1433/1434 (chain 1 GCCUGGAGUUUAUUCGGAATT; chain 2 rUrUrCrCrGrArAmUrArArArCrUrCmCrArGrGrCdT*dT; chain 1: DNA at T, 2'-MOE at CU, RNA at AG, linkages o19 s1 (s phosphorothioate, o phosphodiester), methylation of C and T or U not given here) | 40
18 | AD-12369: modified dsRNA, SEQ ID NO:1435/1436 (chain 1 GCCUGGAGUUUAUUCGGAATT; chain 2 rUrUrCrCrGrArArUrArArArCrUrCrCrArGrGrCdT*dT; chain 1: DNA at T, 2'-MOE at CU, RNA at AG, linkages o19 s1 (s phosphorothioate, o phosphodiester), methylation of C and T or U not given here) | 26
19 | AD-12370: modified dsRNA, SEQ ID NO:1437/1438 (chain 1 GCCUGGAGUUUAUUCGGAATT; chain 2 {P}-fUfUfCfCrGrArAfUrArArAfCfUfCfCrArGrGfCdT*dT; chain 1: DNA at T, 2'-MOE at CU, RNA at AG, linkages o19 s1 (s phosphorothioate, o phosphodiester), methylation of C not given here) | 68
20 | AD-12371: modified dsRNA, SEQ ID NO:1439/1440 (chain 1 GCCUGGAGUUUAUUCGGAATT; chain 2 {P}-fUfUfCfCrGrArAfUrArArAfCfUfCfCrArGrGfC*fC*fU; chain 1: DNA at T, 2'-MOE at CU, RNA at AG, linkages o19 s1 (s phosphorothioate, o phosphodiester), methylation of C and T or U not given here) | 60
21 | AD-12372: modified dsRNA, SEQ ID NO:1441/1442 (chain 1 GCCUGGAGUUUAUUCGGAATT; chain 2 {P}-mUfUmCfCmGfAmAfUmAfAmAfCmUfCmCfAmGfGmC*fC*mU; chain 1: DNA at T, 2'-MOE at CU, RNA at AG, linkages o19 s1 (s phosphorothioate, o phosphodiester), methylation of C and T or U not given here) | 60
22 | AD-12373: modified dsRNA, SEQ ID NO:1443/1444 (chain 1 GCCUGGAGUUUAUUCGGAATT; chain 2 rUrUrCrCrGrArArUrArArArCrUrCrCrArGrGrCdT*dT; chain 1: DNA at T, 2'-MOE at CU, RNA at AG, linkages o19 s1 (s phosphorothioate, o phosphodiester), methylation of C and T or U not given here) | 55
23 | AD-12374: modified dsRNA, SEQ ID NO:1445/1446 (chain 1 rGfCfCfUrGrGrArGfUfUfUrAfUfUfCrGrGrArAdT*dT; chain 2 fUfUfCfCrGrArAfUrArArAfCfUfCfCrArGrGfCdT*dT) | 9
24 | AD-12375: modified dsRNA, SEQ ID NO:1447/1448 (chain 1 rGfCfCfUrGrGrArGfUfUfUrAfUfUfCrGrGrArAdT*dT; chain 2 rUrUrCrCrGrArArUrArArArCrUrCrCrArGrGrCdT*dT) | 16
